According to US20220117903A1, “DRUG DELIVERY SYSTEM AND METHOD” (SEOUL NATIONAL UNIVERSITY R&DB FOUNDATION, priority 2019, published 2022):

Tested on: 4T1 tumors
Experiment: Therapeutic efficacy in mice bearing 4T1 tumors
Assay type: in vivo
Conditions: doxorubicin equivalent 5 mg/kg, four treatments once every 3 days
Procedure: Referring to FIGS. 22 and 23, the amounts of doxorubicin in four groups are equivalent at 5 mg/kg, and all mice received a total of four treatments once every 3 days.

COc1cccc2c1C(=O)c1c(O)c3c(c(O)c1C2=O)C[C@@](O)(C(=O)CO)C[C@@H]3O[C@H]1C[C@H](N)[C@H](O)[C@H](C)O1 [free doxorubicin, doxorubicin]
effect on tumor progression / tumor growth: Neither mice treated with free doxorubicin nor with MSNs-Tz/anti-CD11b-TCO without doxorubicin had an effect on tumor progression
